Test results from patent US20070179295A1, “Triazolopyrimidines” (priority 2003, published 2007).

Assay: logP determination through HPLC (EEC directive 79/831 Annex V. A8, gradient method, acetonitrile/0.1% aqueous phosphoric acid)
Type: physicochemical
Conditions: for chromatographic logP: HPLC
[1] = Table 1, compounds of formula (I), HPLC gradient method, acetonitrile/0.1% aqueous phosphoric acid
[2] = Table 3, precursors of formula (IV)
[3] = Table 2, precursors of formula (II)

CC(Nc1c(-c2ccccn2)c(Cl)nc2nc(C3CC3)nn12)C(C)(C)C (stereo not shown) [Example 18]
logP [1]: 3.09

CCC(C)Nc1c(-c2cc(Cl)sc2Cl)c(Cl)nc2nc(C3CC3)nn12 (stereo not shown) [Example 69]
logP [1]: 4.56

Clc1cc(-c2c(Cl)nc3nc(C4CC4)nn3c2N2CCCCCC2)c(Cl)s1 [Example 85]
logP [1]: 5.14

CC(C)C(C)Nc1c(-c2scnc2Cl)c(Cl)nc2nc(C3CC3)nn12 (stereo not shown) [Example 92]
logP [1]: 3.23

Cc1nc2nc(Cl)c(-c3ncccc3C(F)(F)F)c(N[C@@H](C)C(F)(F)F)n2n1 [Example 1, N-{5-chloro-2-methyl-6-[3-(trifluormethyl)-2-pyridinyl][1,2,4]triazolo-[1,5-a]pyrimidin-7-yl}-N-[(1S)-2,2,2-trifluor-1-methylethyl]amine]
chromatographic logP: 2.38

Clc1nc2nc(C3CC3)nn2c(NC2CCCC2)c1-c1ccsc1 [Example 74]
logP [1]: 3.63

CC(Nc1c(-c2ccncc2Cl)c(Cl)nc2nc(C3CC3)nn12)C(F)(F)F (stereo not shown) [Example 42]
logP [1]: 2.82

CC(C)Nc1c(-c2ccsc2)c(Cl)nc2nc(C3CC3)nn12 [Example 72]
logP [1]: 3.07

Oc1nc2nc(C3CC3)nn2c(O)c1-c1ncncc1Cl [Example 127]
logP [2]: −0.07

O=[N+]([O-])c1cccc(-c2c(Cl)nc3nc(C4CC4)nn3c2Cl)n1 [Example 119]
logP [3]: 2.91

CC(Nc1c(-c2scnc2Cl)c(Cl)nc2nc(C3CC3)nn12)C(F)(F)F (stereo not shown) [Example 91]
logP [1]: 2.94

CC(C)c1nc2nc(Cl)c(-c3ncncc3Cl)c(NC(C)C(F)(F)F)n2n1 (stereo not shown) [Example 29]
logP [1]: 2.90

Cc1nc2nc(Cl)c(-c3ncccc3[N+](=O)[O-])c(NC(C)C(C)(C)C)n2n1 (stereo not shown) [Example 21]
logP [1]: 2.60

Cc1nc2nc(Cl)c(-c3ncncc3F)c(NC(C)C(C)C)n2n1 (stereo not shown) [Example 108]
logP [1]: 2.21

CC(Nc1c(-c2cc(Cl)sc2Cl)c(Cl)nc2nc(C3CC3)nn12)C(F)(F)F (stereo not shown) [Example 46]
logP [1]: 4.32

Clc1cncnc1-c1c(Cl)nc2nc(C3CC3)nn2c1Cl [Example 116]
logP [3]: 2.23

Cc1nc2nc(O)c(-c3ncccc3C(F)(F)F)c(O)n2n1 [Example 126]
logP [2]: −0.03

Cc1nc2nc(Cl)c(-c3ncccc3C(F)(F)F)c(NC(C)C(C)C)n2n1 (stereo not shown) [Example 12]
logP [1]: 2.68

Cc1nc2nc(Cl)c(-c3cncnc3C(F)(F)F)c(Cl)n2n1 [Example 117]
logP [3]: 2.10

Cc1nc2nc(Cl)c(-c3ncncc3Cl)c(Cl)n2n1 [Example 115, 5,7-dichloro-6-(5-chloro-4-pyrimidinyl)-2-methyl[1,2,4]-triazolo[1,5-a]pyrimidine]
chromatographic logP: 1.58

COCCN(C)c1c(-c2ccsc2)c(Cl)nc2nc(C3CC3)nn12 [Example 64]
logP [1]: 2.91

FC1(F)CCN(c2c(-c3ncncc3Cl)c(Cl)nc3nc(C4CC4)nn23)CC1 [Example 41]
logP [1]: 2.75

CC(Nc1c(-c2ncncc2Cl)c(Cl)nc2nc(C3CC3)nn12)C(C)(C)C (stereo not shown) [Example 33]
logP [1]: 3.50

CC1CCN(c2c(-c3ncncc3F)c(Cl)nc3nc(C4CC4)nn23)CC1 [Example 106]
logP [1]: 3.02

CC(C)C(C)Nc1c(-c2ccncc2Cl)c(Cl)nc2nc(C3CC3)nn12 (stereo not shown) [Example 43]
logP [1]: 3.09

CC(Nc1c(-c2ncncc2F)c(Cl)nc2nc(C3CC3)nn12)C(C)(C)C (stereo not shown) [Example 103]
logP [1]: 3.18

Clc1cc(-c2c(Cl)nc3nc(C4CC4)nn3c2N2CCCC2)c(Cl)s1 [Example 82]
logP [1]: 4.37

Cc1nc2nc(Cl)c(-c3ncncc3F)c(NC(C)C(C)(C)C)n2n1 (stereo not shown) [Example 107]
logP [1]: 2.54

FC1(F)CCN(c2c(-c3ccsc3)c(Cl)nc3nc(C4CC4)nn23)CC1 [Example 56]
logP [1]: 3.41

CC(C)C(C)Nc1c(-c2cc(Cl)sc2Cl)c(Cl)nc2nc(C3CC3)nn12 (stereo not shown) [Example 53]
logP [1]: 5.03

CC(C)CC(C)Nc1c(-c2ccsc2)c(Cl)nc2nc(C3CC3)nn12 (stereo not shown) [Example 61]
logP [1]: 4.14

CC(C)c1nc2nc(Cl)c(-c3ncncc3Cl)c(NC(C)C(C)(C)C)n2n1 (stereo not shown) [Example 34]
logP [1]: 3.67

Clc1cc(-c2c(Cl)nc3nc(C4CC4)nn3c2N2CCOCC2)c(Cl)s1 [Example 89]
logP [1]: 3.68

COCCNc1c(-c2cc(Cl)sc2Cl)c(Cl)nc2nc(C3CC3)nn12 [Example 76]
logP [1]: 3.55

CC(Nc1c(-c2ncncc2Cl)c(Cl)nc2nc(C3CC3)nn12)C(F)(F)F (stereo not shown) [Example 38]
logP [1]: 2.82

CC1CN(c2c(-c3ccsc3)c(Cl)nc3nc(C4CC4)nn23)CC(C)O1 (stereo not shown) [Example 67]
logP [1]: 3.26

CC(Nc1c(-c2ncccc2C(F)(F)F)c(Cl)nc2nc(C3CC3)nn12)C(C)(C)C (stereo not shown) [Example 5]
logP [1]: 3.75

CC(Nc1c(-c2ncccc2[N+](=O)[O-])c(Cl)nc2nc(C3CC3)nn12)C(C)(C)C (stereo not shown) [Example 20]
logP [1]: 3.21

CC(C)c1nc2nc(Cl)c(-c3ncc(C(F)(F)F)cc3Cl)c(NC(C)C(F)(F)F)n2n1 (stereo not shown) [Example 111]
logP [1]: 3.95

C[C@H](Nc1c(-c2ncccc2[N+](=O)[O-])c(Cl)nc2nc(C3CC3)nn12)C(F)(F)F (single isomer, unassigned) [Example 17]
logP [1]: 2.65 (Iso- mer)
